The target in series [1] is T1, BVMOAf1 (PTDH-BVMOAf1) (Aspergillus fumigatus, UniProt Q4WAZ0).
T1 construct: gene psoF; Truncated N-terminal BVMO domain (1614 bp, 367 C-terminal residues of the 905 deleted); pCRE2 vector, E. coli TOP10; fusion kept; natural Gln in place of His in the BVMO motif (H173Q)
The experiment in a line: NADPH consumption at […] nm. It is filed as biochemical. The note with it: air-saturated 50 mM Tris/HCl pH 8.0, 25°C.

Series [2] has as its system CCSCc1ccccc1. Briefly: purified protein. The note with it: 100 μM NADPH, air-saturated 50 mM Tris/HCl pH 8.0, 25°C. In kind it is biochemical, Aspergillus fumigatus.
The target of series [3] is T1, BVMOAf1 (PTDH-BVMOAf1). Briefly: UV-Vis absorption of purified holo flavoprotein, FAD release by SDS. It is filed as binding. The note with it: FAD 100 μM in lysis buffer; Tris/HCl pH 8.0.
The mark [4] stands for this setting: 100 μM NADPH, read-out: K M (μ M ).

Where two headings read alike, the source gives them in different places.

T1 sequence (Q4WAZ0 1-538): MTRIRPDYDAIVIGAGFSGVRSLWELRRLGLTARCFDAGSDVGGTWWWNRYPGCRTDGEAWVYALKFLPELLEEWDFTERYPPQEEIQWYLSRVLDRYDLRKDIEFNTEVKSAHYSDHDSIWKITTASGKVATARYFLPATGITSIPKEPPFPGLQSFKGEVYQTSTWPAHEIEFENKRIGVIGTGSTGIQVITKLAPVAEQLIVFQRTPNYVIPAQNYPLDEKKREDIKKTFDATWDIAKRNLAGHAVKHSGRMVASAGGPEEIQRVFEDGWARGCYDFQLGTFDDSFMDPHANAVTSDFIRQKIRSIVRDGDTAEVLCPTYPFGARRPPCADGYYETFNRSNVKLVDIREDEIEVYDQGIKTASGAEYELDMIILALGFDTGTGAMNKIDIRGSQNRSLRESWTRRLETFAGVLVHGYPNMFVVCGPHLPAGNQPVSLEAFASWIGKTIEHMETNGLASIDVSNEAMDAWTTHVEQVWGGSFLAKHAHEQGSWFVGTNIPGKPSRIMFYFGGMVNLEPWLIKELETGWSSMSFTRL

Consider `NC(=O)C1=CN([C@@H]2O[C@H](COP(=O)(O)OP(=O)(O)OC[C@H]3O[C@@H](n4cnc5c(N)ncnc54)[C@H](OP(=O)(O)O)[C@@H]3O)[C@@H](O)[C@H]2O)C=CC1` [NADPH], for which, in series [1] (rac-bicyclo[3.2.0]hept-2-en-6-one 2.0 mM (typical mixture)), the Km is less than 5 µM.
The term kcat denotes the number of substrate molecules converted per active site and unit of time at saturation. What is called kcat/Km is the turnover number divided by the Michaelis constant. On to “BVMOAf1 (PTDH-BVMOAf1) (Aspergillus fumigatus Af293)”, for which, in series [2], the Km stood at 23.5 ± 0.1 µM, the kcat worked out at 0.47 ± 0.04 s⁻¹ and the catalytic efficiency (kcat/Km) was 20000 M⁻¹ s⁻¹.
As to `NC(=O)C1=CN([C@@H]2O[C@H](COP(=O)(O)OP(=O)(O)OC[C@H]3O[C@@H](n4cnc5c(N)ncnc54)[C@H](O)[C@@H]3O)[C@@H](O)[C@H]2O)C=CC1`, the Km in series [1] (setting [4]) was 118.8 ± 0.1 µM.
Regarding `NC(=O)C1=CN([C@@H]2O[C@H](COP(=O)(O)OP(=O)(O)OC[C@H]3O[C@@H](n4cnc5c(N)ncnc54)[C@H](OP(=O)(O)O)[C@@H]3O)[C@@H](O)[C@H]2O)C=CC1` [[drawing 5]], the Km in series [1] (setting [4]) is 179.8 ± 0.1 µM.
On to `Cc1cc2nc3c(=O)[nH]c(=O)nc-3n(C[C@H](O)[C@H](O)[C@H](O)COP(=O)(O)OP(=O)(O)OC[C@H]3O[C@@H](n4cnc5c(N)ncnc54)[C@H](O)[C@@H]3O)c2cc1C` [FAD], for which the “UV-Vis absorption of purified holo flavoprotein, FAD release by SDS” value in series [3] is reported as “yellow fractions containing FAD-bound protein”.

Source of the values: PMC3762062, “Cloning, overexpression and biocatalytic exploration of a novel Baeyer-Villiger monooxygenase from Aspergillus fumigatus Af293” (AMB Express, 2013).
